{"source": "patent US3932633A", "about": "“Novel o-triazenobenzamides, in treating aggressive behavior” (Uniroyal Inc., priority 1974, dated 1976)", "key": {"[1]": {"test": "5 day lethality, mice", "conditions": "mouse, in vivo", "description": "(§1) Table VIII gives the results of 5 day lethality studies following single injections of drug. All values presented represent tests conducted when animals were housed 10 per cage. The compound of Example 6 was compared with chlorpromazine and chlordiazepoxide. In these and all the preceding calculations, the method of Litchfield and Wilcoxon (J. Pharmacol. Exptl. Ther., 96: 99, 1949) was used to estimate effective (ED50) or lethal (LD50) dose."}, "[2]": {"system": "tetrabenazine-induced ptosis in mice", "test": "Antagonism of tetrabenazine-induced ptosis", "format": "in vivo, mouse", "conditions": "200 mg/kg, 30 minutes before tetrabenazine 32 mg/kg intraperitoneally", "experimental": "Groups of mice were given 32 mg/kg of tetrabenazine intraperitoneally 30 minutes after an injection of the compound of Example 6 (200 mg/kg). The degree of ptosis (eyelid drooping or closure) was then determined exactly 30 minutes after tetrabenazine administration."}, "[3]": {"test": "5 day lethality, rats", "conditions": "rat, in vivo, ip", "description": "as §1"}, "[4]": {"system": "mice", "test": "Neuropharmacological profile", "format": "in vivo, mouse", "description": "(§2) Two models of aggression are used in the primary screening for neuroleptics, (1) isolation-induced fighting in mice (IFM), and (2) aggression induced in rats by destruction of the septal area (septal rat). Compounds are first submitted, however, to the neuropharmacological profile, a standard procedure (see, e.g., Samuel Irwin, Science, 136, 123 [1962]) employed in screening a compound to determine its usefulness as a central nervous system active compound. Those agents which cause depression over a wide dose range are then submitted to the first anti-aggression screen, the isolation-induced fighting mouse assay.\nThe compound of Example 6 was studied in the neuropharmacological profile, which, as indicated above, is a standardized multi-dimensional observation technique used on mice to grade symptomatology and acute toxicity relative to dosage."}, "[5]": {"system": "electroshock-induced fighting in mice", "test": "Electroshock-induced fighting in mice", "format": "in vivo, mouse", "conditions": "i.p. administration", "description": "(§3) The compound of Example 6 was compared with chlorpromazine and chlordiazepoxide for its anti-aggressive activity. Three models of experimentally-induced aggression in rodents were studied (R. D. Sofia, Life Science, 8: 705, 1969)."}, "[6]": {"system": "hissing response elicited by hypothalamic stimulation in cats", "test": "Evoked hypothalamic rage response - cats", "format": "in vivo, cat", "conditions": "25 mg/kg orally for three days", "description": "The effect of the compound of Example 6 on the hissing response elicited by hypothalamic stimulation in cats was studied in an effort to determine if it had properties similar to that of chlordiazepoxide and other anti-anxiety-like agents. […] Cats with chronically implanted electrodes, stereotaxically placed in the perifornical region of the hypothalamus, were used in this study. Stimulation was accomplished in the unanesthetized, freely moving animal, and the threshold for the hissing response was determined with the following stimulus parameters: square wave stimulation of 150 Hz with a duration of 0.5 msec and voltage ranging from 5.4 to 30. The compound of Example 6 was administered orally in capsule form. Following administration, the stimulation threshold for the hiss response was determined at 1, 2, 4, 6 and 24 hours. If an effect was observed, the stimulation was carried out daily until the thresholds returned to control values. The compound of Example 6 was administered orally at a dose of 25 mg/kg for three days. […] It can be concluded that the compound of Example 6 has no effect on hypothalamic excitability in cats and in this respect differs markedly from chlordiazepoxide."}, "[7]": {"system": "isolation-induced fighting in mice", "test": "Isolated fighting mouse (IFM) test / isolated mouse aggression", "format": "in vivo", "experimental": "*IFM - Isolated fighting mouse test at a dose of 30 mg/kg\nintraperitoneally; those compounds which protected at least 40% of the\nas §2, §3"}, "[8]": {"system": "maximal electroshock seizures in mice", "test": "Maximal electroshock seizures", "format": "in vivo, mouse", "conditions": "I.P., mice; inactive at: Example 6 200 mg/kg, chlorpromazine 25 mg/kg", "experimental": "Groups of ten mice each were injected i.p. with a vehicle and the compound of Example 6 and placed in individual Plexiglas squares. Thirty minutes after i.p. injection, each mouse was administered an electric shock transcorneally at 50mA intensity, 0.2 seconds duration (Swinyard, et al, J. Pharmacol. Exptl. Ther., 106: 319, 1952). The criterion for activity is protection against tonic extension of the hind limbs. The dose necessary to protect 50% of the mice (MES50) was determined."}, "[9]": {"system": "pentylenetetrazol seizures in mice", "test": "Pentylenetetrazol seizures", "format": "in vivo, mouse", "conditions": "I.P., mice; inactive at: Example 6 200 mg/kg, chlorpromazine 100 mg/kg", "experimental": "In this test (modification of the method introduced by Everett and Richard, J. Pharmacol. Exptl. Ther., 81: 402, 1944), groups of ten mice each are pretreated i.p. with vehicle and various doses of the compound of Example 6 and placed in Plexiglas squares. Thirty minutes later, all mice are injected subcutaneously (s.c.) with pentylenetetrazol at 125 mg/kg and observed immediately thereafter for convulsions and death for a period of 1 hour."}, "[10]": {"system": "d-amphetamine aggregation-induced lethality", "test": "d-Amphetamine aggregation", "format": "in vivo", "conditions": "inactive at: Example 6 200 mg/kg, chlordiazepoxide 50 mg/kg", "experimental": "Protection from d-amphetamine aggregation-induced lethality is usually afforded by alpha-adrenergic-blocking agents such as chlorpromazine, phenoxybenzamine, etc. Percent protection was determined and an ED50 value was calculated."}, "[11]": {"system": "dihydroxyphenylalanine-induced fighting behavior in mice", "test": "Dihydroxyphenylalanine (DOPA) fighting test", "format": "in vivo, mouse", "experimental": "It is well known that when monoamine oxidase inhibitors are administered prior to the administration of d1-DOPA, which is a noradrenaline precursor, convulsions or excitation occur. In this study, the MAO inhibitor pargyline (80 mg/kg) was given 1, 2 and 4 hours prior to administering 200 mg/kg of d1-DOPA. […] Thus, in this procedure, none of the agents tested appears to be a MAO inhibitor."}, "[12]": {"system": "spontaneous locomotor activity in rats", "test": "Spontaneous locomotor activity", "format": "in vivo", "conditions": "Rattus norvegicus, ip, 0.5 h; I.P., rats, 30 minutes after administration, 30 minute activity count; read-out: SD50 (dose causing 50% reduction from control activity)"}, "[13]": {"system": "aggression induced in rats by destruction of the septal area", "test": "Septal rat aggression", "format": "in vivo", "description": "as §2, §3"}, "[14]": {"test": "Neurotoxicity (rotating rod / rotorod), mice", "conditions": "mouse, in vivo, ip; I.P., mice; 95% confidence limits; read-out: NTD50", "experimental": "(§4) In the neurotoxicity test, the value (NTD50) is defined as the dose necessary to cause 50% of mice or rats trained to walk a rotating wooden rod (5 rpm) to fall at the time of peak effect, and is a measure of drug effects on motor function or central nervous system toxicity. The results set forth in Table III were obtained when the compound of Example 6 was tested against chlorpromazine and chlordiazepoxide."}, "[15]": {"test": "Neurotoxicity (rotating rod / rotorod), rats", "conditions": "rat, in vivo, ip", "experimental": "as §4"}}}
{"smiles": "Cc1nc(NN=Nc2ccccc2C(N)=O)sc1C(=O)NCc1ccccc1", "note": "[Example 6, 2-[3-(4-methyl-5-(N-benzyl-carbamoyl)-2-thiazolyl)-2(or 1)-triazeno]-benzamide]", "values": [{"measurement": "LD50 at 120 h", "setting": "[1]; ip", "result": "> 1280", "unit": "mg/kg"}, {"measurement": "LD50 at 120 h", "setting": "[1]; po", "result": "> 800", "unit": "mg/kg"}, {"measurement": "reversal of tetrabenazine-induced ptosis", "setting": "[2]", "result": "did not reverse tetrabenazine-induced ptosis"}, {"measurement": "LD50 at 120 h", "setting": "[3]", "result": "> 1400", "unit": "mg/kg"}, {"measurement": "deaths in neuropharmacological profile", "setting": "[4]; 30, 100, 300 mg/kg, mice", "result": "No deaths occurred"}, {"measurement": "central nervous system depressant action, profile result", "setting": "[4]; mouse, in vivo", "result": "very weak central nervous system depressant"}, {"measurement": "ED50", "setting": "[5]; Mus musculus, ip, read-out: ED50 (95% Confidence Limits), Electroshock-Induced Fighting in Mice", "result": 96, "unit": "mg/kg"}, {"measurement": "NTD50/ED50, Electroshock-Induced Fighting in Mice", "setting": "[5]", "result": 13.3}, {"measurement": "decrease of the threshold for the rage response", "setting": "[6]", "result": "not observed during the experiments"}, {"measurement": "delay from stimulus to response", "setting": "[6]", "result": "not changed"}, {"measurement": "rage response, intensity or character", "setting": "[6]", "result": "not changed in intensity or character"}, {"measurement": "effect on hypothalamic stimulation (threshold)", "setting": "[6]; 25 mg/kg", "result": "no effect on hypothalamic stimulation"}, {"measurement": "responders at 30 mg/kg", "setting": "[7]; Mus musculus, ip, 30 mg/kg intraperitoneally, at least 40% protected = active", "result": 100, "unit": "%"}, {"measurement": "ED50", "setting": "[7]; Mus musculus, ip, i.p. administration, read-out: ED50 (95% Confidence Limits), Isolated Mouse Aggression", "result": 1.8, "unit": "mg/kg"}, {"measurement": "NTD50/ED50, Isolated Mouse Aggression", "setting": "[7]; i.p. administration", "result": 710}, {"measurement": "MES50", "setting": "[8]", "result": "Inactive"}, {"measurement": "MET50", "setting": "[9]", "result": "Inactive"}, {"measurement": "ED50, d-amphetamine aggregation", "setting": "[10]", "result": "Inactive"}, {"measurement": "excitation, salivation, jumping, and fighting with d1-DOPA", "setting": "[11]; 200 mg/kg d1-DOPA, pargyline 80 mg/kg, Example 6 100 mg/kg, chlorpromazine 5 mg/kg, chlordiazepoxide 15 mg/kg", "result": "these symptoms were not observed"}, {"measurement": "potentiation of dihydroxyphenylalanine-induced fighting behavior in mice", "setting": "[11]; mice", "result": "failed to (1) potentiate dihydroxyphenylalanine-induced fighting behavior in mice"}, {"measurement": "ED50", "setting": "[12]", "result": "~500", "unit": "mg/kg"}, {"measurement": "ED50", "setting": "[13]; Rattus norvegicus, ip, i.p. administration, read-out: ED50 (95% Confidence Limits), Septal Rat Aggression", "result": "~4.5", "unit": "mg/kg"}, {"measurement": "NTD50/ED50, Septal Rat Aggression", "setting": "[13]; i.p. administration", "result": 111.0}, {"measurement": "selectivity in inhibition of septal rat aggression versus chlordiazepoxide", "setting": "[13]; septal rat", "result": 185, "unit": "times"}, {"measurement": "TD50", "setting": "[14]", "result": "> 1280", "unit": "mg/kg"}, {"measurement": "TD50", "setting": "[15]", "result": "~500", "unit": "mg/kg"}]}
